Test results taken from patent publication US4638005A, “Monoquaternized pyrazinium compounds and their use as electron carriers in photosynthetic processes” (The Coca-Cola Company, priority 1983, dated 1987).
Counter-ions that a name gives are not always drawn.

Columns and labels:
[1] = target: T1, nitrogenase (Azotobacter vinelandii, UniProt P00459); experiment: Chloroplast-coupled reduction of acetylene to ethylene by nitrogenase (electron carrier bioassay of Benemann); format: biochemical; conditions: for ACTIVITY RELATIVE TO FERREDOXIN (%) / ACTIVITY (nmoles C2 H4 /mg protein/min): Table I; for ACTIVITY RELATIVE TO FERREDOXIN (%): acetylene reduction to ethylene; for ACTIVITY (nmoles C2 H4 /mg protein/min): illuminated spinach chloroplasts, synthetic carriers 2 mM, clostridial ferredoxin 0.2 mM; for ETHYLENE FORMATION % Ferredoxin Activity: Table III ranking; for % FERREDOXIN ACTIVITY: Table IV, acetylene reduction
T1 construct: the nitrogenase sample was prepared from a culture of Azotobacter vinelandii; endogenous in cells; host or cells: Azotobacter vinelandii culture; French press lysate, 10,000 x g supernatant (crude)
T1 sequence (P00459 2-290 limits assumed): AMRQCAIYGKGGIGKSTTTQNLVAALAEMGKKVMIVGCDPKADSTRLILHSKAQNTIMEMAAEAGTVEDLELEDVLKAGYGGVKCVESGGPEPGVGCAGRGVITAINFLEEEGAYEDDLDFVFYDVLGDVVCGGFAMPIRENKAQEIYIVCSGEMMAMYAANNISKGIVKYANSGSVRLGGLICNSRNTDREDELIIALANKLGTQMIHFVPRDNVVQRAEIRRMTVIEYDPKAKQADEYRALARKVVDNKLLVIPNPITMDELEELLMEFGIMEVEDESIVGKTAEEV
Method: The activity of the pyrazinium compounds as electron carriers in an illuminated photocouple process using isolated chloroplasts and the reductive enzyme catalyst nitrogenease has been determined using the bioassay of Benemann, et al., Proc. Natl. Acad. Sci. USA, 64, 1079(1969). In this method, the carrier activity is measured as a function of nitrogenase reduction of acetylene to ethylene, the rate of production of ethylene being the direct measurement.
(§1) For the bioassay, the nitrogenase sample was prepared from a culture of Azotobacter vinelandii grown to a cell density of about 1 g/l. The cells harvested by centrifugation were broken in a French press, cell debris spun off at 10,000 XG for 1 hr., and the supernatant containing 40 mg/ml protein was used in the bioassay experiments. […] chloroplasts from spinach leaves as described by Benemann were also used. The synthetic carriers were tested in aqueous solutions at concentrations of 2 mM, while the standard, clostridial ferredoxin, was used in 0.2 mM aqueous solution. The concentrations of carriers in the assay mixtures were chosen so as to guarantee carrier saturation conditions. Thus, the observed differences in rates of ethylene production from the substrate acetylene were assigned directly to variations in the efficiency of electron transfer from the illuminated chloroplast to the nitrogenase. The results obtained for acetylene reduction (nitrogen fixation) using the pyrazinium compounds of Examples 1 through 42 are summarized in Table I and are expressed as nmoles of ethylene produced per mg protein per minute.

[2] = target: T1, nitrogenase; experiment: Chloroplast-coupled evolution of hydrogen by nitrogenase in the absence of substrate; format: biochemical; conditions: Table II, hydrogen evolution; for ACTIVITY (nmoles H2 /mg protein/min): no nitrogen or acetylene, synthetic carriers 2 mM, ferredoxin 0.2 mM
Method: as §1
It has been recognized for sometime the connection existing between hydrogen metabolism and nitrogen fixation. […] When nitrogenase was purified extensively, as mentioned above, it became apparent that in addition to nitrogen, nitrogenase also catalyzed the reduction of protons. The evolution of hydrogen is particularly active in the absence of the normal substrates for nitrogenase (nitrogen, acetylene, cyanide, azide, etc.), and is dependent upon a strong reductant and adenosine triphosphate hydrolysis. Since hydrogen evolution is not inhibited by CO, but reduction of nitrogen and other substrates is, the reduction of protons presumably occurs at a site other than the site of nitrogen reduction, H. C. Winter, et. al., Ann Rev. Biochem, 45, 409 (1976). Accordingly, with the same bioassay system and with exclusion of nitrogen, and acetylene, the activity of the pyrazinium compounds to act as carriers for production of hydrogen has been determined.
The results of this study, which are summarized in Table II, indicate that the pyrazinium salts that mediate the reduction of acetylene with electrons from the photoexcited chloroplast, are also mediating the reduction of protons by the nitrogenase.

[3] = Polarographic half-wave potential (first wave reduction); format: physicochemical; conditions: 0.1 M phosphate buffer pH 7.55, 25° C.
Text: Sci., 65, 1471(1976). Therefore, it was of interest to measure polarographically the half-wave potentials of the several pyrazinium salts under consideration, to determine the possible effect of structure upon their redox potentials.

ACTIVITY RELATIVE TO FERREDOXIN (%) [1] [%] | ACTIVITY (nmoles C2 H4 /mg protein/min) [1] | ETHYLENE FORMATION % Ferredoxin Activity [1] [%] | % FERREDOXIN ACTIVITY [1] [%] | ACTIVITY RELATIVE TO FERREDOXIN (%) [2] [%] | ACTIVITY (nmoles H2 /mg protein/min) [2] [nmoles H2 /mg protein/min] | E1/2 vs. SCE (mV) [3] [mV] | Structure (SMILES)
95 | 12.8 nmoles C2 H4 /mg protein/min | 95 | 95 | 73 | 19.5 | -710 | CCC(Cc1c[n+](C)ccn1)S(=O)(=O)[O-] (centres unmarked) [Compound 1000]
107 | 14.5 nmoles C2 H4 /mg protein/min | 107 | 107 | 143 | 38.1 | -699 | CCCC(c1c[n+](C)ccn1)S(=O)(=O)[O-] (centres unmarked) [Compound 1200]
41 | 5.5 nmoles C2 H4 /mg protein/min | 41 | 41 | 86 | 22.9 | -683 | C[n+]1ccnc(CCC(O)CO)c1.[I-] (centres unmarked) [Compound 1500, 1-Methyl-3-(3,4-dihydroxybutyl)pyrazinium iodide]
33 | 4.5 nmoles C2 H4 /mg protein/min | 33 | 33 | 62 | 16.6 | -715 | C[n+]1ccnc(C(CC(O)CO)CC(O)CO)c1 (centres unmarked) [Compound 1700, 1-Methyl-3-[4-(1,2,6,7-tetrahydroxyheptyl)]pyrazinium iodide]
124 | 16.7 nmoles C2 H4 /mg protein/min | 124 | 124 | 129 | 34.4 | -683 | C[n+]1ccnc(C(CCCS(=O)(=O)[O-])CCCS(=O)(=O)O)c1 (centres unmarked) [Compound 1800, 4-(1-Methyl-3-pyrazinyl)heptane-1,7-disulfonate sodium salt]
79 | 10.7 nmoles C2 H4 /mg protein/min | 79 | 79 | 106 | 28.4 | -676 | C[n+]1ccnc(CCCCS(=O)(=O)[O-])c1 [Compound 1801]
61 | 8.3 nmoles C2 H4 /mg protein/min | 61 | 61 | 100 | 26.6 | -573 | C[n+]1ccnc(S(=O)(=O)[O-])c1 [Compound 2000]
55 | 7.5 nmoles C2 H4 /mg protein/min | 55 | 55 | 98 | 26.2 | -704 | C[n+]1ccnc(C(O)CO)c1.[I-] (centres unmarked) [Compound 2200, 1-Methyl-3-(1,2-dihydroxyethyl)pyrazinium iodide]
105 | 14.2 nmoles C2 H4 /mg protein/min | 105 | 105 | 128 | 34.1 | -701 | CC(c1c[n+](C)ccn1)S(=O)(=O)[O-] (centres unmarked) [Compound 2400]
98 | 13.2 nmoles C2 H4 /mg protein/min | 98 | 98 | 154 | 41.2 | -730 | C[n+]1ccnc(CCS(=O)(=O)[O-])c1 [Compound 2600]
61 | 8.3 nmoles C2 H4 /mg protein/min | 61 | 61 | 140 | 37.3 | -690 | C[n+]1ccnc(CS(=O)(=O)[O-])c1 [Compound 2800]
99 | 13.4 nmoles C2 H4 /mg protein/min | 99 | 99 | 124 | 33.1 | -738 | Cc1c[n+](C)cc(CS(=O)(=O)[O-])n1 [Compound 3000]
98 | 13.3 nmoles C2 H4 /mg protein/min | 98 | 98 | 161 | 43.1 | -673 | Cc1cnc(CS(=O)(=O)[O-])c[n+]1C [Compound 3200]
20 | 2.7 nmoles C2 H4 /mg protein/min | 20 | 20 | 111 | 29.7 | -680 | CCC(O)Cc1c[n+](C)ccn1.[I-] (centres unmarked) [Compound 3400, 1-Methyl-3-(2-hydroxybutyl)pyrazinium iodide]
5 | 0.7 nmoles C2 H4 /mg protein/min | 5 | 5 | 19 | 5.0 | -575 | CCC(=O)Cc1c[n+](C)ccn1 [Compound 3500, 1-Methyl-3-(2-oxybutyl)pyrazinium iodide]
31 | 4.2 nmoles C2 H4 /mg protein/min | 31 | 31 | 32 | 8.6 | -701 | C[n+]1ccnc(C(C)(C)[N+](=O)[O-])c1.[I-] [Compound 3700, 1-Methyl-3-(1-nitroisopropyl)pyrazinium iodide]
15 | 2.0 nmoles C2 H4 /mg protein/min | 15 | 15 | 22 | 5.8 | -681 | CC(=O)NCCc1c[n+](C)ccn1.[I-] [Compound 3800, 1-Methyl-3-(2-acetamidoethyl)pyrazinium iodide]
